In PubChem BioAssay AID248 (DTP/NCI, 2004):
Several values for one entry are separate records, joined by “and”; a condition that tells them apart may be missing. Equal values may be shown once. Inconclusive results and toxic doses are left out. No stated cut-off is given here; in the data, active means T/C of 150% or more; inactive means T/C below 125%. Peptide text beside a SMILES is read from it. * marks the point of attachment. Cbz = O=C(OCc1ccccc1)*

Test system: L1210 leukemia ip in BDF1 mice, survival T/C
Assay: NCI In Vivo Anticancer Drug Screen. Data for tumor model L1210 Leukemia (intraperitoneal) in B6D2F1 (BDF1) mice
Conditions: endpoint: mean survival time, higher = longer survival
How it was run: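 Antitumor effect is assessed in tumor-bearing animals. Survival in the compound arm is compared with a vehicle-dosed control arm and expressed as their quotient.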

[1] = dose: 100.0 mg/kg/injection, schedule: Q04DX002 (ip), vehicle: Klucel (hydroxypropylcellulose) (HPC)
[2] = dose: 50.0 mg/kg/injection, schedule: Q01DX009 (ip), vehicle: Klucel (hydroxypropylcellulose) (HPC)
[3] = dose: 100.0 mg/kg/injection, schedule: Q01DX009 (ip), vehicle: Klucel (hydroxypropylcellulose) (HPC)
[4] = dose: 200.0 mg/kg/injection, schedule: Q01DX009 (ip), vehicle: Klucel (hydroxypropylcellulose) (HPC)
[5] = dose: 100.0 mg/kg/injection, schedule: Q01DX009 (ip), vehicle: saline with Tween-80
[6] = dose: 200.0 mg/kg/injection, schedule: Q01DX009 (ip), vehicle: saline with Tween-80
[7] = dose: 100.0 mg/kg/injection, schedule: Q04DX003 (ip), vehicle: saline
[8] = dose: 200.0 mg/kg/injection, schedule: Q04DX003 (ip), vehicle: saline
[9] = dose: 400.0 mg/kg/injection, schedule: Q04DX003 (ip), vehicle: saline
[10] = dose: 200.0 mg/kg/injection, schedule: Q04DX002 (ip), vehicle: Klucel (hydroxypropylcellulose) (HPC)
[11] = dose: 400.0 mg/kg/injection, schedule: Q04DX002 (ip), vehicle: Klucel (hydroxypropylcellulose) (HPC)
[12] = dose: 100.0 mg/kg/injection, schedule: Q01DX009 (ip), vehicle: saline
[13] = dose: 200.0 mg/kg/injection, schedule: Q01DX009 (ip), vehicle: saline
[14] = dose: 400.0 mg/kg/injection, schedule: Q01DX009 (ip), vehicle: saline
[15] = dose: 400.0 mg/kg/injection, schedule: Q01DX009 (ip), vehicle: saline with Tween-80
[16] = dose: 100.0 mg/kg/injection, schedule: Q01DX001 (ip), vehicle: saline
[17] = dose: 200.0 mg/kg/injection, schedule: Q01DX001 (ip), vehicle: saline
[18] = dose: 400.0 mg/kg/injection, schedule: Q01DX001 (ip), vehicle: saline

Measured: T/C

C[n+]1nc2ccccc2c(=Nc2ccccc2[N+](=O)[O-])[n-]1
inactive: dose: 100.0 mg/kg/injection, schedule: Q01DX001 (ip), vehicle: Klucel (hydroxypropylcellulose) (HPC) 93 % of control | dose: 200.0 mg/kg/injection, schedule: Q01DX001 (ip), vehicle: Klucel (hydroxypropylcellulose) (HPC) 94 % of control | dose: 400.0 mg/kg/injection, schedule: Q01DX001 (ip), vehicle: Klucel (hydroxypropylcellulose) (HPC) 94 % of control

CC/C=C(/C#N)CC
inactive: dose: 100.0 mg/kg/injection, schedule: Q04DX002 (ip), vehicle: saline with Tween-80 104 % of control | dose: 200.0 mg/kg/injection, schedule: Q04DX002 (ip), vehicle: saline with Tween-80 93 % of control

CC(NC(=O)OCc1ccccc1)C(=O)NC(CC(N)=O)C(=O)O (stereo not drawn) (Cbz-Ala-Asn-OH; configuration not given here)
inactive: dose: 25.0 mg/kg/injection, schedule: Q04DX002 (ip), vehicle: Klucel (hydroxypropylcellulose) (HPC) 95 % of control | dose: 50.0 mg/kg/injection, schedule: Q04DX002 (ip), vehicle: Klucel (hydroxypropylcellulose) (HPC) 95 % of control | [1] 95 % of control

CCC(CO)NC1CCCC1 (configuration not stated)
inactive: dose: 75.0 mg/kg/injection, schedule: Q01DX001 (ip), vehicle: acid diluted with saline 100 % of control | dose: 150.0 mg/kg/injection, schedule: Q01DX001 (ip), vehicle: acid diluted with saline 100 % of control | dose: 300.0 mg/kg/injection, schedule: Q01DX001 (ip), vehicle: acid diluted with saline 100 % of control

CC1(C)N=C(N)N=C(N)N1c1cccc(C(=O)c2ccccc2)c1
inactive: dose: 25.0 mg/kg/injection, schedule: Q01DX001 (ip), vehicle: saline with Tween-80 98 % of control | dose: 50.0 mg/kg/injection, schedule: Q01DX001 (ip), vehicle: saline with Tween-80 90 % of control

COc1ccc2c(c1)CC[C@@H]1[C@@H]2CC[C@]2(C)/C(=N\O)CC[C@@H]12
inactive: dose: 100.0 mg/kg/injection, schedule: Q01DX001 (sc), vehicle: steriod suspending solution 100 % of control | dose: 100.0 mg/kg/injection, schedule: Q04DX003 (ip), vehicle: steriod suspending solution 102 % of control | dose: 200.0 mg/kg/injection, schedule: Q01DX001 (sc), vehicle: steriod suspending solution 100 % of control | dose: 200.0 mg/kg/injection, schedule: Q04DX003 (ip), vehicle: steriod suspending solution 100 % of control | dose: 400.0 mg/kg/injection, schedule: Q01DX001 (sc), vehicle: steriod suspending solution 97 % of control | dose: 400.0 mg/kg/injection, schedule: Q04DX003 (ip), vehicle: steriod suspending solution 97 % of control

OC/C(=C/c1ccccc1)c1ccccc1
inactive: [2] 98 % of control | dose: 75.0 mg/kg/injection, schedule: Q04DX003 (ip), vehicle: Klucel (hydroxypropylcellulose) (HPC) 100 % of control | [3] 91 % of control | dose: 150.0 mg/kg/injection, schedule: Q04DX003 (ip), vehicle: Klucel (hydroxypropylcellulose) (HPC) 98 % of control | [4] 93 % of control | dose: 300.0 mg/kg/injection, schedule: Q04DX003 (ip), vehicle: Klucel (hydroxypropylcellulose) (HPC) 96 % of control

Cc1ccc(N2CCNCC2)cc1
inactive: dose: 6.25 mg/kg/injection, schedule: Q04DX003 (ip), vehicle: saline 91 % of control | dose: 12.5 mg/kg/injection, schedule: Q04DX003 (ip), vehicle: saline 93 % of control | dose: 25.0 mg/kg/injection, schedule: Q04DX003 (ip), vehicle: saline 103 % of control

C/C(N)=C\C#N
inactive: dose: 50.0 mg/kg/injection, schedule: Q01DX001 (ip), vehicle: saline 91 % of control

CN1C(=O)NC(C)(c2cccs2)C1=O (configuration not stated)
inactive: [5] 112 % of control | dose: 100.0 mg/kg/injection, schedule: Q04DX003 (ip), vehicle: saline with Tween-80 99 % of control | [6] 113 % of control | dose: 200.0 mg/kg/injection, schedule: Q04DX003 (ip), vehicle: saline with Tween-80 106 % of control | dose: 400.0 mg/kg/injection, schedule: Q04DX003 (ip), vehicle: saline with Tween-80 97 % of control

Cc1ccc(NC(=O)NCC(=O)O)cc1
inactive: dose: 100.0 mg/kg/injection, schedule: Q01DX001 (ip), vehicle: carboxymethylcellulose (CMC) 101 % of control | dose: 200.0 mg/kg/injection, schedule: Q01DX001 (ip), vehicle: carboxymethylcellulose (CMC) 97 % of control | dose: 400.0 mg/kg/injection, schedule: Q01DX001 (ip), vehicle: carboxymethylcellulose (CMC) 109 % of control

CSc1ncc(CO)c(Nc2ccc(F)cc2)n1
inactive: [7] 93 % of control | [8] 100 % of control | [9] 98 % of control

CC(=O)Nc1ccc(F)c(F)c1
inactive: [1] 98 % of control | [10] 113 % of control | [11] 121 % of control

CCN(CC)C1CCC(NC(C)=O)CC1 (configuration not stated)
inactive: [12] 108 % of control | [7] 105 % of control and 97 % of control | [13] 107 % of control | [8] 96 % of control and 99 % of control | [14] 86 % of control | [9] 101 % of control

CCC(CO)C(C)C (configuration not stated)
inactive: dose: 50.0 mg/kg/injection, schedule: Q01DX009 (ip), vehicle: saline with Tween-80 107 % of control | [5] 102 % of control | [6] 93 % of control

Cc1ccc(NC(=O)OCCOc2ccc([N+](=O)[O-])cc2)c([N+](=O)[O-])c1
inactive: [2] 102 % of control | [3] 91 % of control | dose: 100.0 mg/kg/injection, schedule: Q04DX003 (ip), vehicle: Klucel (hydroxypropylcellulose) (HPC) 97 % of control | [4] 91 % of control | dose: 200.0 mg/kg/injection, schedule: Q04DX003 (ip), vehicle: Klucel (hydroxypropylcellulose) (HPC) 102 % of control | dose: 400.0 mg/kg/injection, schedule: Q04DX003 (ip), vehicle: Klucel (hydroxypropylcellulose) (HPC) 95 % of control

O=C(Nc1ccc(CCO)cc1)Nc1ccccc1C(F)(F)F
inactive: [5] 97 % of control | [6] 90 % of control | [15] 92 % of control

Cc1ccc(C2(C(=O)O)CC2)cc1
inactive: [5] 100 % of control | [6] 97 % of control | [15] 94 % of control

CN1CCC(CNC(=O)CCCCCCCCC(=O)NCC2(c3ccccc3)CCN(C)CC2)(c2ccccc2)CC1
inactive: dose: 0.63 mg/kg/injection, schedule: Q01DX Z (ip), vehicle: saline 89 % of control | dose: 1.25 mg/kg/injection, schedule: Q01DX Z (ip), vehicle: saline 89 % of control | dose: 2.5 mg/kg/injection, schedule: Q01DX Z (ip), vehicle: saline 88 % of control | dose: 5.0 mg/kg/injection, schedule: Q01DX Z (ip), vehicle: saline 86 % of control | dose: 5.0 mg/kg/injection, schedule: Q04DX003 (ip), vehicle: saline with Tween-80 102 % of control

Cc1cccc(Cl)c1NC(=S)Nc1ccccc1
inactive: [1] 101 % of control | [10] 94 % of control | [11] 97 % of control

O=C(O)c1ccc(C(=O)O)c(O)c1O
inactive: dose: 50.0 mg/kg/injection, schedule: Q01DX009 (ip), vehicle: saline 120 % of control | [16] 100 % of control | [12] 105 % of control | [7] 89 % of control | [17] 92 % of control | [13] 116 % of control | [8] 96 % of control | [18] 94 % of control

CCCCCc1[nH]c(=O)[nH]c(=O)c1N=Nc1ccccc1
inactive: dose: 100.0 mg/kg/injection, schedule: Q01DX001 (ip), vehicle: saline with Tween-80 98 % of control | dose: 200.0 mg/kg/injection, schedule: Q01DX001 (ip), vehicle: saline with Tween-80 97 % of control | dose: 400.0 mg/kg/injection, schedule: Q01DX001 (ip), vehicle: saline with Tween-80 100 % of control

C=COC(=O)c1ccccc1 (tested in a mixture with another compound)
inactive: dose: 100.0 mg/kg/injection, schedule: Q01DX001 (ip), vehicle: other 97 % of control | [16] 110 % of control [middle of 4 runs] | dose: 200.0 mg/kg/injection, schedule: Q01DX001 (ip), vehicle: other 97 % of control | [17] 97 % of control and 105 % of control and 108 % of control | dose: 400.0 mg/kg/injection, schedule: Q01DX001 (ip), vehicle: other 86 % of control | [18] 101 % of control and 105 % of control and 108 % of control

CCCCCCCCC(=O)CC
inactive: [12] 104 % of control | [13] 98 % of control | [14] 94 % of control
